# Source: EP0172919A1, “CEPHALOSPORIN DERIVATIVES, PROCESS FOR THEIR PREPARATION, AND THEIR PHARMACEUTICAL USE” (TEIJIN LIMITED, priority 1984, dated 1985)
# Read-outs that look alike come from different tables or passages of the source.
# Assays:
# Enterobacter cloacae 963 = assay: In vitro antibacterial activity, two-fold agar-plate dilution method (MIC); type: cell-based
# Description: (§1) In vitro antibacterial activity was determined by the two-fold agar-plate dillution method.
# (§2) One loopful of an overnight culture of each test starin in Trypticase-soy broth (10^6 viable cells per mt) was streaked on heart infusion agar (Muller-Hinton Agar) containing graded concentrations of representative test compound, and the minimal inhibitory concentration (MIC) was expressed in terms of µg/ml after incubation at 37°C for 16 hours.
# (§3) In vitro antibacterial activities of other compounds of the present invention were determined in the same way as in Example 26.
# Proleus morgani IFO3848 = assay: as above; type: cell-based; settings: 37°C for 16 hours
# Description: as §1, §2, §3
# Proleus vulgaria OX-19 = assay: as above; type: cell-based; settings: 37°C for 16 hours
# Description: as §1, §2, §3
# [1] = test system: Proleus vulgaris IFO 3850; assay: as above; type: cell-based
# Description: as §1, §2, §3
# [2] = test system: Pseudomonas aeruginosa IFO3445; assay: as above; type: cell-based
# Description: as §1, §2, §3
# Salmonera paratyphi 1015 = assay: as above; type: cell-based
# Description: as §1, §2, §3
# [3] = test system: Serratia marcescens IAM1184; assay: as above; type: cell-based
# Description: as §1, §2, §3
# Staphyrococcus Terajima = assay: as above; type: cell-based
# Description: as §1, §2, §3
# [4] = test system: Butilus subtilis ATCC6633; assay: as above; type: cell-based; settings: 37°C for 16 hours
# Description: as §1, §2
# [5] = test system: Escherichia coli K-12C-600; assay: as above; type: cell-based; settings: K12C600, 37°C for 16 hours
# Description: as §1, §2
# [6] = test system: Micrococcus luteus ATCC9341; assay: as above; type: cell-based
# Description: as §1, §2
# [7] = test system: Pseudomonas aeruginosa NCTC10490; assay: as above; type: cell-based
# Description: as §1, §2
# [8] = test system: Pseudomonas aeruginosa PAO1; assay: as above; type: cell-based
# Description: as §1, §2
# [9] = test system: Salmonera schottmuelleri 8001; assay: as above; type: cell-based; settings: 37°C for 16 hours
# Description: as §1, §2
# [10] = test system: Salmonera typhimurium IID 971; assay: as above; type: cell-based; settings: 37°C for 16 hours
# Description: as §1, §2
# [11] = test system: Staphyrococcus aureus FDA209JC-1; assay: as above; type: cell-based
# Description: as §1, §2
# [12] = test system: Staphyrococcus aureus MS 353; assay: as above; type: cell-based
# Description: as §1, §2
# [13] = test system: Staphyrococcus pyogenes COOK; assay: as above; type: cell-based
# Description: as §1, §2
# E.coli 81 = assay: In vivo antibacterial activity: survival of mice infected with E.coli 81; design: species or system ICR strain male mice
# Description: Experiment was performed in ICR strain male mice (5W) weighing 22 to 25 g. The animals were used in a group of 10 per regimen. Test organism, E.coli 81, was cultured on Mueller-Hinton agar over night at 37°C and suspended in saline to be one minimal lethal dose (5 x 10^5 cells/head). One mililitre of the bacterial suspension was injected intrapenetoreally and, after 15 minutes, mice were treated subcutaneously with various doses of compound (100) and comparative compound B. Survival mice were counted for 4 days and final observation was carried out on day 4.
# [14] = Enterobacter cloacae 963, agar dilution, 37°C for 16 hours, read-out: MIC
# [15] = Proleus vulgaris IFO 3850, agar dilution, 37°C for 16 hours, read-out: MIC
# [16] = Pseudomonas aeruginosa IFO3445, agar dilution, 37°C for 16 hours, read-out: MIC
# [17] = Serratia marcescens, IAM1184, 16 h
# [18] = Staphyrococcus Terajima, agar dilution, 37°C for 16 hours, read-out: MIC
# [19] = Serratia marcescens IAM1184, agar dilution, 37°C for 16 hours, read-out: MIC
compound,measurement,setting,value
"CO/N=C(\C(=O)N[C@@H]1C(=O)N2C(C(=O)[O-])=C(C[N+]34CCC(CC3)C(O)C4)CS[C@H]12)c1csc(N)n1 (stereo partly drawn) [Compound (302), (6R,7R)-7-[(Z)-2-(2-aminothiazol-4-yℓ)-2-methoxyiminoacetoamido]-3-(1-aza-3-hydro-xybicyclo[2,2,2]octane-l-io)methyl-3-cephem-4-carboxylate]",MIC,Enterobacter cloacae 963; [14],0.025 µg/mL
same,MIC,Proleus morgani IFO3848; read-out: MIC,0.0063 µg/mL
same,MIC,Proleus vulgaria OX-19; read-out: MIC,0.025 µg/mL
same,MIC,[1]; [15],0.0063 µg/mL
same,MIC,[2]; [16],0.39 µg/mL
same,MIC,Salmonera paratyphi 1015; 16 h,0.0125 µg/mL
same,MIC,[3]; [17],0.0125 µg/mL
same,MIC,Staphyrococcus Terajima; [18],0.1 µg/mL
CC(C)(ON=C(C(=O)NC1C(=O)N2C(C(=O)[O-])=C(C[n+]3ccccc3)CSC12)c1csc(N)n1)C(=O)O (stereo not shown) [Comparative compound A],MIC,"Enterobacter cloacae 963; Enterobacter cloacae, 963, 16 h",0.2 µg/mL
same,MIC,"[2]; Pseudomonas aeruginosa, IFO3445, 16 h",1.56 µg/mL
same,MIC,Staphyrococcus Terajima; 16 h,1.56 µg/mL
same,MIC,[4],0.78 µg/mL
same,MIC,[5],0.2 µg/mL
same,MIC,"[6]; Micrococcus luteus, ATCC9341, 16 h",0.0063 µg/mL
same,MIC,"[7]; Pseudomonas aeruginosa, NCTC10490, 16 h",0.39 µg/mL
same,MIC,"[8]; Pseudomonas aeruginosa, PAO1, 16 h",0.1 µg/mL
same,MIC,[9],0.025 µg/mL
same,MIC,[10],0.39 µg/mL
same,MIC,[11]; 16 h,1.56 µg/mL
same,MIC,[12]; 16 h,1.56 µg/mL
same,MIC,[13]; 16 h,0.0063 µg/mL
"CO/N=C(\C(=O)N[C@@H]1C(=O)N2C(C(=O)[O-])=C(C[N+]34CCC(CC3)C4)CS[C@H]12)c1csc(N)n1 [Compound (200), (6R,7R)-7-[(Z)-2-(2-aminothiazol-4-yℓ)-2-methoxyiminoacetoamido]-3-(1-azabicyclo[2,2,1]heptane-l-io)methyl-3-cephem-4-carboxylate]",MIC,Enterobacter cloacae 963; [14],0.05 µg/mL
same,MIC,Proleus morgani IFO3848; read-out: MIC,0.0063 µg/mL
same,MIC,Proleus vulgaria OX-19; read-out: MIC,0.05 µg/mL
same,MIC,[1]; [15],0.0125 µg/mL
same,MIC,[2]; [16],1.56 µg/mL
same,MIC,Salmonera paratyphi 1015; 16 h,0.025 µg/mL
same,MIC,[3]; [19],0.025 µg/mL
same,MIC,Staphyrococcus Terajima; [18],0.2 µg/mL
"CO/N=C(\C(=O)N[C@@H]1C(=O)N2C(C(=O)[O-])=C(C[N+]34CCCC3CCC4C)CS[C@H]12)c1csc(N)n1 (stereo partly drawn) [Compound (106), (6R,7R)-7-[(Z)-2-(2-aminothiazol-4-yℓ)-2-methoxyiminoacetoamido]-3-(l-aza-8-methl-bicyclo[3,3,0]octane-l-io)methyl-3-cephem-4-carboxylate]",MIC,"Enterobacter cloacae 963; Enterobacter cloacae 963, agar dilution, 37°C for 16 hours",0.2 µg/mL
same,MIC,Proleus morgani IFO3848,0.025 µg/mL
same,MIC,Proleus vulgaria OX-19,0.025 µg/mL
same,MIC,"[1]; Proleus vulgaris IFO 3850, agar dilution, 37°C for 16 hours",0.0125 µg/mL
same,MIC,"[2]; Pseudomonas aeruginosa IFO3445, agar dilution, 37°C for 16 hours",0.78 µg/mL
same,MIC,"Salmonera paratyphi 1015; Salmonera paratyphi 1015, agar dilution, 37°C for 16 hours",0.025 µg/mL
same,MIC,"[3]; Serratia marcescens IAM1184, agar dilution, 37°C for 16 hours",0.05 µg/mL
same,MIC,"Staphyrococcus Terajima; Staphyrococcus Terajima, agar dilution, 37°C for 16 hours",0.2 µg/mL
"CO/N=C(\C(=O)N[C@@H]1C(=O)N2C(C(=O)[O-])=C(C[N+]34CCC(CC3)C(=O)C4)CS[C@H]12)c1csc(N)n1 [Compound (300), (6R,7R)-7-[(Z)-2-(2-aminothiazol-4-yl)-2-methoxyiminoacetoamido]-3-(1-aza-3-carbonyl-bicyclo[2,2,2]octane-l-io)methyl-3-cephem-4-carboxylate]",MIC,Enterobacter cloacae 963; [14],0.025 µg/mL
same,MIC,Proleus morgani IFO3848; read-out: MIC,> 0.0063 µg/mL
same,MIC,Proleus vulgaria OX-19; read-out: MIC,0.025 µg/mL
same,MIC,[1]; 16 h,0.0125 µg/mL
same,MIC,[2]; [16],0.39 µg/mL
same,MIC,Salmonera paratyphi 1015; 16 h,0.0125 µg/mL
same,MIC,[3]; [17],0.0125 µg/mL
same,MIC,Staphyrococcus Terajima; [18],0.2 µg/mL
"CC(C)(O/N=C(\C(=O)N[C@@H]1C(=O)N2C(C(=O)[O-])=C(C[N+]34CCCC3CCC4)CS[C@H]12)c1csc(N)n1)C(=O)O (stereo partly drawn) [Compound (116), (6R,7R)-7-[(Z)-2-(2-aminothiazol-4-yl)-2-(2-carboxypropyl-2-yloxyimino)acetoamido]-3-(1-azabicyclo[3,3,0]octane-l-io)methyl-3-cephem-4-carboxylate]",MIC,Enterobacter cloacae 963; [14],0.05 µg/mL
same,MIC,Proleus morgani IFO3848; read-out: MIC,0.0063 µg/mL
same,MIC,[1]; [15],0.0063 µg/mL
same,MIC,[2]; [16],0.2 µg/mL
same,MIC,Salmonera paratyphi 1015; 16 h,0.0125 µg/mL
same,MIC,[3]; [17],0.0125 µg/mL
same,MIC,Staphyrococcus Terajima; [18],0.78 µg/mL
"CO/N=C(\C(=O)N[C@@H]1C(=O)N2C(C(=O)[O-])=C(C[N+]34CCCCC3CCCC4)CS[C@H]12)c1csc(N)n1 (stereo partly drawn) [Compound (104), (6R,7R)-[(Z)-2-(2-aminothiazol-4-yl)-2-methoxyiminoacetoamido]-3-(1-azabicyclo [4,4,0]decane-1-io) methyl-3-cephem-4-carboxylate]",MIC,Enterobacter cloacae 963; [14],0.1 µg/mL
same,MIC,Proleus morgani IFO3848; read-out: MIC,0.0125 µg/mL
same,MIC,Proleus vulgaria OX-19; read-out: MIC,0.025 µg/mL
same,MIC,[1]; [15],0.0125 µg/mL
same,MIC,[2]; [16],1.56 µg/mL
same,MIC,Salmonera paratyphi 1015; 16 h,0.025 µg/mL
same,MIC,[3]; [19],0.025 µg/mL
same,MIC,Staphyrococcus Terajima; [18],0.39 µg/mL
CON=C(C(=O)NC1C(=O)N2C(C(=O)O)=C(CSc3nnnn3C)CSC12)c1csc(N)n1 (stereo not shown) [Comparative compound B],MIC,Enterobacter cloacae 963; [14],0.2 µg/mL
same,MIC,[2]; [16],12.5 µg/mL
same,MIC,Staphyrococcus Terajima; [18],0.78 µg/mL
same,MIC,[4],0.78 µg/mL
same,MIC,[5],0.05 µg/mL
same,MIC,"[6]; Micrococcus luteus ATCC9341, agar dilution, 37°C for 16 hours, read-out: MIC",0.39 µg/mL
same,MIC,"[7]; Pseudomonas aeruginosa NCTC10490, agar dilution, 37°C for 16 hours, read-out: MIC",0.39 µg/mL
same,MIC,"[8]; Pseudomonas aeruginosa PAO1, agar dilution, 37°C for 16 hours, read-out: MIC",12.5 µg/mL
same,MIC,[9],0.0063 µg/mL
same,MIC,[10],0.39 µg/mL
same,MIC,"[11]; Staphyrococcus aureus FDA209JC-1, agar dilution, 37°C for 16 hours, read-out: MIC",3.12 µg/mL
same,MIC,"[12]; Staphyrococcus aureus MS 353, agar dilution, 37°C for 16 hours, read-out: MIC",0.2 µg/mL
same,MIC,"[13]; Staphyrococcus pyogenes COOK, agar dilution, 37°C for 16 hours, read-out: MIC",0.025 µg/mL
same,Survivals percent (%) on day 4,E.coli 81; Dose 0.016 mg/head subcutaneously 15 minutes after intraperitoneal E.coli 81 (5 x 10^5 cells/head),0%
same,Survivals percent (%) on day 4,E.coli 81; Dose 0.032 mg/head subcutaneously 15 minutes after intraperitoneal E.coli 81 (5 x 10^5 cells/head),20%
same,Survivals percent (%) on day 4,E.coli 81; Dose 0.063 mg/head subcutaneously 15 minutes after intraperitoneal E.coli 81 (5 x 10^5 cells/head),30%
same,Survivals percent (%) on day 4,E.coli 81; Dose 0.125 mg/head subcutaneously 15 minutes after intraperitoneal E.coli 81 (5 x 10^5 cells/head),40%
same,Survivals percent (%) on day 4,E.coli 81; Dose 0.25 mg/head subcutaneously 15 minutes after intraperitoneal E.coli 81 (5 x 10^5 cells/head),40%
same,Survivals percent (%) on day 4,E.coli 81; Dose 0.5 mg/head subcutaneously 15 minutes after intraperitoneal E.coli 81 (5 x 10^5 cells/head),40%
